From article PMC6158189, “A pharmacological probe identifies cystathionine β-synthase as a new negative regulator for ferroptosis” (Cell Death & Disease, 2018) come the findings set out here.

The structures appear in SMILES notation. Entries after “also recorded” stand apart in the source; their conditions may differ.

The test system of series [1] is HepG2 cells. In words: colony formation (crystal violet). The class given is cell-based, human. Particulars: 24 h treatment. An excerpt:
Figure S12. CH004 inhibits the proliferation of cells via specifically targeting hCBS. (A-B) Dose-dependent curves of CH004 on the cell viability of CBS-stably-expressed HEK293T (A) or CBS-knockdown cells (B). Percentages of cell viability of CH004 obtained in Figure 4b were fitted to the non-linear equation using GraphPad Prism 5 to get the IC50 values of CH004 in respective cell lines (●, 293T-CBS WT cells; ○, 293T-EV; ▲, 293T-shCBS; △, 293T-shNT). Means ± SDs (n=3). […] HEK293T cells stably expressing of the lentiviral shRNA targeting CBS (shCBS) or control shRNA (shNT) were seeded at the density of ~ 3,000 cells per well in 96-well plates and the cell images in the bright field were acquired at indicated times by Image Xpress Micro® XLS (Molecular Devices, Sunnyvale, CA) under 10 × objective lens. Representative images of two independent experiments (n = 6 for each experiment) are shown in C. The cell numbers of images under 4 × objective lens of one representative experiment were calculated by Image Xpress Software and the data is shown in D. Means ± SDs (n=6). […] HepG2 cells were seeded in a 96-well plate at a density of 20000 cells per well and cultured for 24 h before treatment with indicated concentrations of CH004 for another 24 h. The colonies were stained with crystal violet and quantified by measuring the absorbance at 590 nm. […] Means ± SDs (n=3). […]

In series [2] the test system is H22 mouse liver tumor cells in ICR mice. Particulars: 10 mg/kg/day i.v. As for the experimental part: Fig. 7 CH004 suppresses tumor growth in vivo. a–c CH004 reduces the growth rate of tumors in liver tumor xenograft mice model. Mice bearing liver tumor xenografts were treated with CH004 (10 mg/kg/d), cyclophophamide (CTX, 20 mg/kg/d) or PBS (Vehicle) for 21 days. The tumor volumes were measured every two days during day 6 to day 22 and the data was presented in a (n = 8). […] Mice body weight was measured along with the measurement of tumor volume (n = 8). Means ± SDS. Statistical analyses were performed on the raw data by one-way (c) or two-way ANOVA (a) with Bonferroni post-tests. The significance of the CH004-treated group compared to Vehicle was indicated with $ (a), whereas the comparison of the CTX group to Vehicle was with # (a). $, # or ***p < 0.001
The in vivo effect of CH004 on tumor growth was evaluated in a xenograft mice model of liver cancer. The experiment was independently performed by Jiangsu KeyGEN BioTECH Co. LTD (Jiangsu, China) and followed the standard procedures that were established and approved by the local Animal Care and Use Committee. Briefly, H22 mouse liver tumor cells were intraperitoneal injected into female ICR mice (SLAC Laboratory Animal Co. Ltd, Shanghai, China). 8 days later, mice with distended abdomen were killed, and the ascites was collected, washed and resuspended with PBS. 0.1 ml cell suspension with a density of 1 × 10^7/ml was subcutaneously injected into the right dorsum of ICR female mice (~20 g). The mice bearing H22 tumor cells were then randomized into groups (n = 8) on the following day after the implantation. Then, the mice were injected via a tail vein (i.v.) with PBS, CH004 (10 mg/kg) or cyclophosphamide (CTX, a known anticancer drug; 20 mg/kg) once per day and for 21 days. Tumor sizes were measured every 2 days starting from the day 6 using a caliper, and tumor volume was calculated using the formula V = length × width^2 × π / 6. The body weights of mice were recorded under the same conditions. The mice were sacrificed on day 22, and the tumors were taken out and weighted.

The subject of series [3] is HepG2 cells. Put plainly: cellular cystathionine by LC/ESI-MS/MS. In kind it is cell-based, human. To be noted: 8 h, 100 μM Hcys and 100 μM Ser. As for the experimental part: The effect of CH004 on the level of CTH in HepG2 cells was determined by a liquid chromatography-tandem mass spectrometry (LC/ESI-MS/MS). We followed a condition, which was previously established with LC/ESI-MS/MS[56], for quantification of CTH. […] We selected the 223.1 → 88.1 transition for the quantitative method. Briefly, after the incubation with the compounds for 8 h in the presence of 100 μM Hcys and 100 μM Ser, the HepG2 cells were lysed with liquid nitrogen. 10 μl supernatant was injected to the Ultra Performance Liquid Chromatographic system on a Zorbax XDB C18 reverse phase column (4.6 × 150 mm, temperature-controlled at 10 °C), and eluted isogradiently with a solution mixed from acetonitrile (in the presence of 0.1% formic acid) and water (0.1% formic acid) (2:98, v/v) at a flow rate of 0.4 ml/min in a diode array detector (Agilent G4212A). The Agilent 6470 UHPLC-QqQ/MS system composes of a chomatographic system (Agilent 1260 Infinity) and a Triple Quad mass spectrometer fitted with an ESI source. Data was acquired in the MRM mode using Agilent MassHunter Workstation Data Acquisition Software (revision B.04).
Figure S14. […] All images are representative of three independent experiments. […] Means ± SDs (n=2).

`Cn1nc(Cc2ccccc2)nc2c(=O)n(C)c(=O)nc1-2` [CH004, 3-benzyl-1,6-dimethylpyrimido[5,4-e][1,2,4]triazine-5,7(1H,6H)-dione]: the IC50 in the series on HepG2 cells [1] is approximately 8 µM; with HepG2 cells [1] (Homo sapiens, HepG2, 24 h), approximately 7.9 µM. Moreover, the “reduction of tumor volume or weight” value in series [2] (21-day treatment) is “more than half”. In series [2] (21 days), the “effect on total body weight” value is “did not substantially affect; also recorded: hardly affects”. Further, the “growth rate of tumor” value in series [2] (since day 12 of treatment, p < 0.001) is listed as “significantly reduced”. In addition, the “level of cystathionine (CTH)” value in the series with HepG2 cells [3] is “dose-dependently inhibits; also recorded: largely reduced”.

Usually IC50 stands for the concentration that inhibits the measured activity by half. Read a high IC50 as lower potency.
